Assay results taken from US5939419A, “2-benzyl-polycyclic guanine derivatives and process for preparing them” (Schering-Plough Corporation, priority 1995, dated 1999).

The molecules below were run on spontaneously hypertensive rats (SHR) (assay: Antihypertensive activity in conscious spontaneously hypertensive rats (SHR), oral). Settings: not given.
Assay type: in vivo, rat
Source text: The present compounds are useful in inhibiting the phosphodiesterase enzymes. These phosphodiesterase enzymes are known to hydrolyze cGMP in smooth muscle. High levels of cGMP are associated with the relaxation of vascular smooth muscle, with a consequent subsequent reduction in blood pressure. Thus, it is believed that by inhibiting these phosphodiesterase enzymes, cGMP levels in muscle will be either maintained or increased, with a subsequent reduction in blood pressure. In vivo antihypertensive activity is determined orally in spontaneously hypertensive rats (SHR).
Antihypertensive activity in rats
The ability of the compounds of the present invention to lower blood pressure can be assessed in vivo in conscious spontaneously hypertensive rats (SHR). SHR males are purchased from Taconic Farms, Germantown, N.Y. and are approximately 16-18 weeks old when anesthetized with ether. The caudal (ventral tail) artery is cannulated with polyethylene tubing (PE50) and blood pressure and heart rate are recorded as described by Baum, T. et. al, J. Cardiovasc. Pharmacol. Vol 5, pp. 655-667, (1983). Rats are placed into plastic cylindrical cages where they rapidly recover consciousness. Blood pressure and heart rate are allowed to stabilize for approximately 90 minutes prior to compound administration. […] Activity is expressed as the fall in mean blood pressure (MBP) in millimeters of mercury (mm Hg). […]

| SMILES | SHR: fall in MBP at 25 mpk |
| --- | --- |
| CN1C(=O)c2[nH]c(Cc3ccccc3)nc2N2C1=N[C@@H]1CCC[C@@H]12 (relative stereo) [Compound A, reference compound] | 6 mmHg |
| CN1C(=O)c2[nH]cnc2N2C1=N[C@@H]1CCC[C@@H]12 (relative stereo) [Compound B, cis-5,6a,7,8,9,9a-hexahydro-5-methylcyclopenta-[4,5]imidazo[2,1-b]-purin-4(3H)-one, reference compound] | 32 mmHg |

What follows are molecules tested against T1, calcium-calmodulin dependent phosphodiesterase (CaM-PDE) (Bos taurus, UniProt P14100) (assay: Phosphodiesterase inhibition in vitro, calcium-calmodulin dependent phosphodiesterase (CaM-PDE), 3H-cGMP substrate). Settings: CaM-PDE from bovine aorta; 1 μM 3H-cGMP; pH 7.5; 25 minutes at room temperature.
T1 construct: from tissue; host or cells: bovine aorta
Assay type: biochemical

| SMILES | IC50 |
| --- | --- |
| CN1C(=O)c2[nH]c(Cc3ccccc3)nc2N2C1=N[C@@H]1CCC[C@@H]12 (relative stereo) [Compound A, reference compound] | 0.2 µM |
| CN1C(=O)c2[nH]cnc2N2C1=N[C@@H]1CCC[C@@H]12 (relative stereo) [Compound B, cis-5,6a,7,8,9,9a-hexahydro-5-methylcyclopenta-[4,5]imidazo[2,1-b]-purin-4(3H)-one, reference compound] | 33 µM |
| CN1C(=O)c2[nH]c(Cc3ccc(F)cc3)nc2N2C1=N[C@@H]1CCC[C@@H]12 [Example 1A] | < 0.1 µM |
| COc1ccc(Cc2nc3c([nH]2)C(=O)N(C)C2=N[C@@H]4CCC[C@@H]4N23)cc1 [Example 1B] | 0.2 µM |
| CN1C(=O)c2[nH]c(Cc3ccc(C(F)(F)F)cc3)nc2N2C1=N[C@@H]1CCC[C@@H]12 [Example 1C] | 0.6 µM |
| CN1C(=O)c2[nH]c(Cc3ccccc3)nc2N2C1=N[C@@H]1CCC[C@@H]12 [Example 1] | 0.1 µM |
| CN1C(=O)c2[nH]c(Cc3ccc(N(C)C)cc3)nc2N2C1=N[C@@H]1CCC[C@@H]12 [Example 2] | < 0.1 µM |
| CN1C(=O)c2[nH]c(Cc3ccc(O)cc3)nc2N2C1=N[C@@H]1CCC[C@@H]12 [Example 3] | < 0.1 µM |
| CN1C(=O)c2[nH]c(Cc3ccc4ccccc4c3)nc2N2C1=N[C@@H]1CCC[C@@H]12 [Example 6] | 0.48 µM |
| CN1C(=O)c2[nH]c(Cc3ccc(Cl)cc3)nc2N2C1=N[C@@H]1CCC[C@@H]12 [Example 7] | 0.65 µM |
| CN1C(=O)c2[nH]c(Cc3ccccc3)nc2N2CC3(CCCC3)N=C12 [Example 8] | 0.1 µM |
| CN1C(=O)c2[nH]c(Cc3ccccc3)nc2N2CC(C)(C)N=C12 [Example 9] | 0.3 µM |
| CC(C)[C@@H]1CN2C(=N1)N(C)C(=O)c1[nH]c(Cc3ccccc3)nc12 [Example 10] | 0.1 µM |
| CN1C(=O)c2[nH]c(Cc3ccc4c(c3)OCO4)nc2N2C1=NC13CCCC1CCC23 (centres unmarked) [Example 11] | 0.2 µM |
| CN1C(=O)c2[nH]c(Cc3ccc(C(F)(F)F)cc3)nc2N2C1=N[C@@H]1COC[C@@H]12 [Example 12] | 3 µM |

Continued, values first:

| IC50 | SMILES |
| --- | --- |
| 0.7 µM | COc1cc(Cc2nc3c([nH]2)C(=O)N(C)C2=N[C@@H]4CCC[C@@H]4N23)cc(OC)c1OC [Example 2A] |
| 0.4 µM | COc1ccc(Cc2nc3c([nH]2)C(=O)N(C)C2=N[C@@H]4CCC[C@@H]4N23)cc1OC [Example 2B] |
| 0.1 µM | Cc1ccc(Cc2nc3c([nH]2)C(=O)N(C)C2=N[C@@H]4CCC[C@@H]4N23)cc1 [Example 3A] |
| 0.6 µM | CN1C(=O)c2[nH]c(Cc3ccc(OC(F)(F)F)cc3)nc2N2C1=N[C@@H]1CCC[C@@H]12 [Example 3B] |
| 0.2 µM | CN1C(=O)c2[nH]c(Cc3ccc(N4CCOCC4)cc3)nc2N2C1=N[C@@H]1CCC[C@@H]12 [Example 3C] |
| 0.9 µM | COc1cccc(Cc2nc3c([nH]2)C(=O)N(C)C2=N[C@@H]4CCC[C@@H]4N23)c1 [Example 3E] |
| 0.8 µM | CN1C(=O)c2[nH]c(Cc3cccc(C(F)(F)F)c3)nc2N2C1=N[C@@H]1CCC[C@@H]12 [Example 3F] |
| 0.3 µM | CN1C(=O)c2[nH]c(Cc3ccc4c(c3)OCO4)nc2N2C1=N[C@@H]1CCC[C@@H]12 [Example 3G] |
| < 0.1 µM | CN1C(=O)c2[nH]c(Cc3ccc(-c4ccccc4)cc3)nc2N2C1=N[C@@H]1CCC[C@@H]12 [Example 3H] |
